In brackets after ≈: the same amount, converted by molar mass. Activity calls are given as the source filed them. The rule behind the calls is not given here.
Assays:
Type in all cases: functional
Fusarium verticillioides [1] = test: Antifungal activity against Fusarium moniliforme after 48 to 72 hrs by microdilution method
Escherichia coli [2] = test: Antibacterial activity against Escherichia coli at 25 ug/ml after 24 hrs by agar well diffusion method; settings: for zone of inhibition at 25 µg/mL: read-out: DIZ
Bacillus subtilis [3] = test: Antibacterial activity against Bacillus subtilis at 100 ug/ml after 24 hrs by agar well diffusion method; settings: read-out: DIZ
Klebsiella pneumoniae [4] = test: Antibacterial activity against Klebsiella pneumoniae incubated for overnight by microdilution method
Staphylococcus aureus [5] = test: Antibacterial activity against methicillin resistant Staphylococcus aureus MRSA090 at 100 ug/ml after 24 hrs by agar well diffusion method; settings: MRSA090, 24 h, read-out: DIZ
Aspergillus niger [6] = test: Antifungal activity against Aspergillus niger at 25 ug/ml after 48 hrs by agar well diffusion method; settings: read-out: DIZ
Fusarium oxysporum [7] = test: Antifungal activity against Fusarium oxysporum at 100 ug/ml after 48 hrs by agar well diffusion method; settings: read-out: DIZ
Escherichia coli [8] = test: Antibacterial activity against Escherichia coli at 100 ug/ml after 24 hrs by agar well diffusion method; settings: for zone of inhibition at 100 µg/mL: read-out: DIZ
Bacillus subtilis [9] = test: Antibacterial activity against Bacillus subtilis incubated for overnight by microdilution method
Staphylococcus aureus [10] = test: Antibacterial activity against methicillin resistant Staphylococcus aureus MRSA090 at 75 ug/ml after 24 hrs by agar well diffusion method; settings: MRSA090, 24 h, read-out: DIZ
Escherichia coli [11] = test: Antibacterial activity against Escherichia coli at 50 ug/ml after 24 hrs by agar well diffusion method; settings: for zone of inhibition at 50 µg/mL: read-out: DIZ
Escherichia coli [12] = test: Antibacterial activity against Escherichia coli at 75 ug/ml after 24 hrs by agar well diffusion method; settings: for zone of inhibition at 75 µg/mL: read-out: DIZ
Staphylococcus aureus [13] = test: Antibacterial activity against Staphylococcus aureus at 25 ug/ml after 24 hrs by agar well diffusion method; settings: read-out: DIZ
Aspergillus niger [14] = test: Antifungal activity against Aspergillus niger after 48 to 72 hrs by microdilution method
Fusarium verticillioides [15] = test: Antifungal activity against Fusarium moniliforme at 50 ug/ml after 48 hrs by agar well diffusion method; settings: read-out: DIZ
Escherichia coli [16] = test: Antibacterial activity against Escherichia coli incubated for overnight by microdilution method
Fusarium verticillioides [17] = test: Antifungal activity against Fusarium moniliforme at 75 ug/ml after 48 hrs by agar well diffusion method; settings: read-out: DIZ
Klebsiella pneumoniae [18] = test: Antibacterial activity against Klebsiella pneumoniae at 75 ug/ml after 24 hrs by agar well diffusion method; settings: for zone of inhibition at 75 µg/mL: read-out: DIZ
Staphylococcus aureus [19] = test: Antibacterial activity against Staphylococcus aureus at 50 ug/ml after 24 hrs by agar well diffusion method; settings: read-out: DIZ
Bacillus subtilis [20] = test: Antibacterial activity against Bacillus subtilis at 25 ug/ml after 24 hrs by agar well diffusion method; settings: read-out: DIZ
Klebsiella pneumoniae [21] = test: Antibacterial activity against Klebsiella pneumoniae at 25 ug/ml after 24 hrs by agar well diffusion method; settings: for zone of inhibition at 25 µg/mL: read-out: DIZ
Fusarium oxysporum [22] = test: Antifungal activity against Fusarium oxysporum at 50 ug/ml after 48 hrs by agar well diffusion method; settings: read-out: DIZ
Staphylococcus aureus [23] = test: Antibacterial activity against Staphylococcus aureus incubated for overnight by microdilution method
Staphylococcus aureus [24] = test: Antibacterial activity against methicillin resistant Staphylococcus aureus MRSA090 at 50 ug/ml after 24 hrs by agar well diffusion method; settings: MRSA090, 24 h, read-out: DIZ
Bacillus subtilis [25] = test: Antibacterial activity against Bacillus subtilis at 50 ug/ml after 24 hrs by agar well diffusion method; settings: read-out: DIZ
Fusarium oxysporum [26] = test: Antifungal activity against Fusarium oxysporum after 48 to 72 hrs by microdilution method
Klebsiella pneumoniae [27] = test: Antibacterial activity against Klebsiella pneumoniae at 100 ug/ml after 24 hrs by agar well diffusion method; settings: for zone of inhibition at 100 µg/mL: read-out: DIZ
Staphylococcus aureus [28] = test: Antibacterial activity against methicillin resistant Staphylococcus aureus MRSA090 at 25 ug/ml after 24 hrs by agar well diffusion method; settings: MRSA090, 24 h, read-out: DIZ
Fusarium verticillioides [29] = test: Antifungal activity against Fusarium moniliforme at 25 ug/ml after 48 hrs by agar well diffusion method; settings: read-out: DIZ
Staphylococcus aureus [30] = test: Antibacterial activity against Staphylococcus aureus at 75 ug/ml after 24 hrs by agar well diffusion method; settings: read-out: DIZ
Bacillus subtilis [31] = test: Antibacterial activity against Bacillus subtilis at 75 ug/ml after 24 hrs by agar well diffusion method; settings: read-out: DIZ
Klebsiella pneumoniae [32] = test: Antibacterial activity against Klebsiella pneumoniae at 50 ug/ml after 24 hrs by agar well diffusion method; settings: for zone of inhibition at 50 µg/mL: read-out: DIZ
Staphylococcus aureus [33] = test: Antibacterial activity against Staphylococcus aureus at 100 ug/ml after 24 hrs by agar well diffusion method; settings: read-out: DIZ
Fusarium oxysporum [34] = test: Antifungal activity against Fusarium oxysporum at 75 ug/ml after 48 hrs by agar well diffusion method; settings: read-out: DIZ
Fusarium oxysporum [35] = test: Antifungal activity against Fusarium oxysporum at 25 ug/ml after 48 hrs by agar well diffusion method; settings: read-out: DIZ
Fusarium verticillioides [36] = test: Antifungal activity against Fusarium moniliforme at 100 ug/ml after 48 hrs by agar well diffusion method; settings: read-out: DIZ
Aspergillus niger [37] = test: Antifungal activity against Aspergillus niger at 75 ug/ml after 48 hrs by agar well diffusion method; settings: read-out: DIZ
Aspergillus niger [38] = test: Antifungal activity against Aspergillus niger at 100 ug/ml after 48 hrs by agar well diffusion method; settings: read-out: DIZ
Aspergillus niger [39] = test: Antifungal activity against Aspergillus niger at 50 ug/ml after 48 hrs by agar well diffusion method; settings: read-out: DIZ

Row | SMILES | MIC (Fusarium verticillioides [1]) | zone of inhibition at 100 µg/mL (Bacillus subtilis [3]) | zone of inhibition at 100 µg/mL (Staphylococcus aureus [5]) | zone of inhibition at 25 µg/mL (Aspergillus niger [6]) | zone of inhibition at 100 µg/mL (Fusarium oxysporum [7]) | zone of inhibition at 75 µg/mL (Staphylococcus aureus [10]) | zone of inhibition at 25 µg/mL (Staphylococcus aureus [13]) | MIC (Aspergillus niger [14]) | zone of inhibition at 50 µg/mL (Fusarium verticillioides [15]) | zone of inhibition at 75 µg/mL (Fusarium verticillioides [17]) | zone of inhibition at 50 µg/mL (Staphylococcus aureus [19]) | zone of inhibition at 25 µg/mL (Bacillus subtilis [20]) | zone of inhibition at 50 µg/mL (Fusarium oxysporum [22]) | zone of inhibition at 50 µg/mL (Staphylococcus aureus [24]) | zone of inhibition at 50 µg/mL (Bacillus subtilis [25]) | MIC (Fusarium oxysporum [26]) | zone of inhibition at 25 µg/mL (Staphylococcus aureus [28]) | zone of inhibition at 25 µg/mL (Fusarium verticillioides [29]) | zone of inhibition at 75 µg/mL (Staphylococcus aureus [30]) | zone of inhibition at 75 µg/mL (Bacillus subtilis [31]) | also measured
1 | Cc1cccc2nc(N/N=C/c3ccc(Br)cc3Br)sc12 | 18 µg/mL (≈ 42.3 µM) | 27 mm | 17 mm | 24 mm | 38 mm | 15 mm | 11 mm | 20 µg/mL (≈ 47 µM) | 27 mm | 32 mm | 15 mm | 13 mm | 24 mm | 12 mm | 17 mm | 16 µg/mL (≈ 37.6 µM) | 8 mm | 21 mm | 18 mm | 24 mm | zone of inhibition at 25 µg/mL (Escherichia coli [2]): 5 mm; MIC (Klebsiella pneumoniae [4]): 20 µg/mL (≈ 47 µM); zone of inhibition at 100 µg/mL (Escherichia coli [8]): 16 mm; MIC (Bacillus subtilis [9]): 28 µg/mL (≈ 65.9 µM); zone of inhibition at 50 µg/mL (Escherichia coli [11]): 8 mm; zone of inhibition at 75 µg/mL (Escherichia coli [12]): 12 mm; MIC (Escherichia coli [16]): 24 µg/mL (≈ 56.5 µM); zone of inhibition at 75 µg/mL (Klebsiella pneumoniae [18]): 15 mm; zone of inhibition at 25 µg/mL (Klebsiella pneumoniae [21]): 8 mm; MIC (Staphylococcus aureus [23]): 28 µg/mL (≈ 65.9 µM); zone of inhibition at 100 µg/mL (Klebsiella pneumoniae [27]): 20 mm; zone of inhibition at 50 µg/mL (Klebsiella pneumoniae [32]): 11 mm; zone of inhibition at 100 µg/mL (Staphylococcus aureus [33]): 21 mm; zone of inhibition at 75 µg/mL (Fusarium oxysporum [34]): 30 mm; zone of inhibition at 25 µg/mL (Fusarium oxysporum [35]): 16 mm; zone of inhibition at 100 µg/mL (Fusarium verticillioides [36]): 41 mm; zone of inhibition at 75 µg/mL (Aspergillus niger [37]): 36 mm; zone of inhibition at 100 µg/mL (Aspergillus niger [38]): 40 mm; zone of inhibition at 50 µg/mL (Aspergillus niger [39]): 29 mm
2 | Cc1cccc2nc(N/N=C/c3ccc(F)cc3F)sc12 | 20 µg/mL (≈ 65.9 µM) | 15 mm | 19 mm | 17 mm | 20 mm | 16 mm | 5 mm | 26 µg/mL (≈ 85.7 µM) | 23 mm | 28 mm | 8 mm | 7 mm | 13 mm | 13 mm | 10 mm | 18 µg/mL (≈ 59.3 µM) | 10 mm | 18 mm | 11 mm | 13 mm | zone of inhibition at 25 µg/mL (Escherichia coli [2]): 4 mm; MIC (Klebsiella pneumoniae [4]): 22 µg/mL (≈ 72.5 µM); zone of inhibition at 100 µg/mL (Escherichia coli [8]): 14 mm; MIC (Bacillus subtilis [9]): 25 µg/mL (≈ 82.4 µM); zone of inhibition at 50 µg/mL (Escherichia coli [11]): 7 mm; zone of inhibition at 75 µg/mL (Escherichia coli [12]): 11 mm; MIC (Escherichia coli [16]): 24 µg/mL (≈ 79.1 µM); diameter of the inhibition zone (DIZ) (Klebsiella pneumoniae [18]): inactive; diameter of the inhibition zone (DIZ) (Klebsiella pneumoniae [21]): inactive; MIC (Staphylococcus aureus [23]): 23 µg/mL (≈ 75.8 µM); diameter of the inhibition zone (DIZ) (Klebsiella pneumoniae [27]): inactive; diameter of the inhibition zone (DIZ) (Klebsiella pneumoniae [32]): inactive; zone of inhibition at 100 µg/mL (Staphylococcus aureus [33]): 15 mm; zone of inhibition at 75 µg/mL (Fusarium oxysporum [34]): 16 mm; zone of inhibition at 25 µg/mL (Fusarium oxysporum [35]): 10 mm; zone of inhibition at 100 µg/mL (Fusarium verticillioides [36]): 33 mm; zone of inhibition at 75 µg/mL (Aspergillus niger [37]): 29 mm; zone of inhibition at 100 µg/mL (Aspergillus niger [38]): 30 mm; zone of inhibition at 50 µg/mL (Aspergillus niger [39]): 24 mm
3 | Cc1cccc2nc(N/N=C/c3ccc([N+](=O)[O-])cc3[N+](=O)[O-])sc12 | 25 µg/mL (≈ 70 µM) | 16 mm | 18 mm | 21 mm | 28 mm | 16 mm | 6 mm | 25 µg/mL (≈ 70 µM) | 24 mm | 30 mm | 9 mm | 3 mm | 19 mm | 13 mm | 7 mm | 22 µg/mL (≈ 61.6 µM) | 8 mm | 20 mm | 13 mm | 12 mm | zone of inhibition at 25 µg/mL (Escherichia coli [2]): 8 mm; zone of inhibition at 100 µg/mL (Escherichia coli [8]): 18 mm; zone of inhibition at 50 µg/mL (Escherichia coli [11]): 13 mm; zone of inhibition at 75 µg/mL (Escherichia coli [12]): 15 mm; zone of inhibition at 75 µg/mL (Klebsiella pneumoniae [18]): 14 mm; zone of inhibition at 25 µg/mL (Klebsiella pneumoniae [21]): 5 mm; zone of inhibition at 100 µg/mL (Klebsiella pneumoniae [27]): 19 mm; zone of inhibition at 50 µg/mL (Klebsiella pneumoniae [32]): 19 mm; zone of inhibition at 100 µg/mL (Staphylococcus aureus [33]): 19 mm; zone of inhibition at 75 µg/mL (Fusarium oxysporum [34]): 25 mm; zone of inhibition at 25 µg/mL (Fusarium oxysporum [35]): 13 mm; zone of inhibition at 100 µg/mL (Fusarium verticillioides [36]): 36 mm; zone of inhibition at 75 µg/mL (Aspergillus niger [37]): 29 mm; zone of inhibition at 100 µg/mL (Aspergillus niger [38]): 32 mm; zone of inhibition at 50 µg/mL (Aspergillus niger [39]): 24 mm
4 | Cc1cccc2nc(N/N=C/c3ccc(Cl)cc3Cl)sc12 | 28 µg/mL (≈ 83.3 µM) | 16 mm | 16 mm | 20 mm | 31 mm | 13 mm | 4 mm | 25 µg/mL (≈ 74.4 µM) | 21 mm | 28 mm | 12 mm | 4 mm | 22 mm | 8 mm | 9 mm | 26 µg/mL (≈ 77.3 µM) | 5 mm | 17 mm | 16 mm | 13 mm | diameter of the inhibition zone (DIZ) (Escherichia coli [2]): inactive; diameter of the inhibition zone (DIZ) (Escherichia coli [8]): inactive; diameter of the inhibition zone (DIZ) (Escherichia coli [11]): inactive; diameter of the inhibition zone (DIZ) (Escherichia coli [12]): inactive; zone of inhibition at 75 µg/mL (Klebsiella pneumoniae [18]): 19 mm; zone of inhibition at 25 µg/mL (Klebsiella pneumoniae [21]): 10 mm; zone of inhibition at 100 µg/mL (Klebsiella pneumoniae [27]): 22 mm; zone of inhibition at 50 µg/mL (Klebsiella pneumoniae [32]): 15 mm; zone of inhibition at 100 µg/mL (Staphylococcus aureus [33]): 20 mm; zone of inhibition at 75 µg/mL (Fusarium oxysporum [34]): 27 mm; zone of inhibition at 25 µg/mL (Fusarium oxysporum [35]): 18 mm; zone of inhibition at 100 µg/mL (Fusarium verticillioides [36]): 32 mm; zone of inhibition at 75 µg/mL (Aspergillus niger [37]): 29 mm; zone of inhibition at 100 µg/mL (Aspergillus niger [38]): 33 mm; zone of inhibition at 50 µg/mL (Aspergillus niger [39]): 24 mm

— ChEMBL document CHEMBL4020788, “Synthesis, SAR and molecular docking studies of benzo[d]thiazole-hydrazones as potential antibacterial and antifungal agents” (2017)
